Results reported in patent publication US9198896B2 (priority 2006, dated 2015).
Entries after “also recorded” stand apart in the source; their conditions may differ. Like-named read-outs stand apart in the source and are kept apart here. Marks after values point to notes of the source that are not given here.

Legend:
[1] = for Blood cells, remarks: dog and bitch
From the text: Hemoglobin was estimated by reacting the blood sample with Drabkin's reagent to convert it to cyanmethemoglobin and measuring the absorbance at 540 nm. Urea was estimated by reacting it with hot acidic diacetylmonoxime in the presence of semicarbarzide and measuring the rose-purple color at 525 nm. Glucose was estimated by glucose oxidase method in the presence of peroxidase and measuring the absorbance of the colored complex of hydroxybenzoate and 4-aminophenazone at 510 nm. Creatinine was measured by reacting it with alkaline picrate and measuring the absorbance of the red-colored complex at 520 nm. Alkaline phosphatase was assayed by its ability to convert phenyl phosphate to inorganic phosphate and phenol. The later reacts with 4-aminoantipyrine to form an orange-red-colored complex, which was measured at 510 nm. Aspartate transaminase was measured by reacting the reaction product oxaloacetate (from the substrate 1-aspartic acid) with 2,4-dinitrophenyl hydrazine. The hydrazone thus formed gives a characteristic brown color when placed in an alkaline medium and was measured at 505 nm. Alanine transaminase was assayed similarly by 2,4-dinitrophenylhydrazine-alkali color reaction; the substrate and products are 1-alanine and pyruvate respectively.
Long-term toxicity test with non-rodents (dog and bitch). Total of 6 animals (4 dogs and 2 bitches) were used for this experiment. The animals were 3-4 months old. Three different modes of treatment were used; two animals received the formulation orally, the other two by intravenous injection and the other two by subcutaneous injection. The total period of treatment was for 4 weeks (5 days per week).
Dogs. For biochemical analysis, blood samples from each individual animal were collected and processed similarly to that of rats. The samples were collected just before the treatment commenced, in mid-phase of the treatment and 7 days after completion of the treatment. The samples were analyzed for the activities of several enzymes and metabolite contents as per the methods described in the respective assay kit and are briefly mentioned before. Hemoglobin estimation and cell count were done with an uncoagulated sample.
However, subcutaneous injections appeared to be painful. The biochemical tests and some hematological studies were performed with blood of the animals, the results of which are presented in the Tables.

[2] = tested on: EAC cells; test: Increase in life span study of EAC cell-inoculated mice; format: in vivo; conditions: 14 days from day 3
Protocol: Increase in life span study. For increase in life span study (ILS), testing was evaluated by calculating the median survival time (MST) of the treated (T) and control (C) groups and expressed as ILS value [(T/C−1)×100].
The treatment started from day 3. The amount of each compound indicated in the parentheses is the amount administered per kg body weight per day.
The day on which 10^5 EAC cells were inoculated into each mouse was considered as day 0. The treatment started from day 3. […] 15 animals received a particular mode of treatment. Control group received only normal saline. […] Each set of experiment was repeated 4 times.

[3] = tested on: EAC cells; test: Increase in body weight of EAC cell-inoculated mice; format: in vivo; conditions: Table 10
Protocol: Increase in body weight: For this experiment, mice were weighed periodically during and after the therapy. The results are expressed as percentage increase in the body weight using the following relationship: percent increase equals
Ehrlich ascites carcinoma bearing mice were treated intraperitonially with different drug combinations in normal saline to observe their effect on body weight (table 10) and life span (table 11). Mice in the control group were similarly treated intraperitonially only with normal saline.
The day on which 10^5 EAC cells were inoculated into each mouse was considered as day 0. The treatment started from day 3. […] 6 animals received a particular mode of treatment. Control group received only normal saline. […] Each set of experiment was repeated 4 times.

[4] = tested on: ascites sarcoma 180 cells; conditions: Együd and Szent-Györgyi, 1968; cited from earlier work
[5] = Fertility study; conditions: oral or intravenous, dose and schedule as chronic toxicity test
[6] = tested on: EAC cells; test: Tumor growth inhibition study; conditions: for % of cells present in respect of the control / No. of EAC cells (in million) / Volume of packed cells: day 3 to day 16
Protocol: Tumor growth inhibition study: For this study, the total number of EAC cells was counted. The ascites fluid containing cells were quantitatively removed from peritoneal cavity of two mice for a particular drug combination. The cavity was further washed twice with a fixed volume of 0.9% NaCl. The washing and the ascites fluid containing the cells were pooled and centrifuged at 2000×g for 5 min. The packed cell volumes were noted. A fixed amount of aliquot from the packed cells was appropriately diluted, and the number of cells was counted in a hemocytometer. Averages (X^−±SEM) were made of these two parameters, and percentage inhibitions [(1−T/C)×100] were calculated for each dose of different test combinations.

[7] = Table 7, MG 30 mg/kg/day ip 0.5 ml
[8] = Table 7, MG 100 mg/kg/day ip 0.5 ml
[9] = Table 11, MG 30 mg/kg/day ip 0.25 ml
[10] = Table 11, MG 100 mg/kg/day ip 0.25 ml

SMILES: CC(=O)C=O [methylglyoxal]
- Blood cells, remarks ([1]; After treatment): Mild hypochromia; also recorded: No abnormal cells
- Blood cells, remarks ([1]; Mid-phase treatment): Mild hypochromia; also recorded: No abnormal cells
- Basophils ([1]; dog, in vivo): 0%
- general physical conditions and behavioral pattern vs control ([1]; dog, long-term treatment): no abnormalities
- death ([1]; dogs, during and after the treatment (90 days)): no death occurred
- 60 day survivors/15 animals [2, 7]: 1
- ILS value [2, 7]: 34%
- Median survival time [2, 7]: 26 days
- 60 day survivors/15 animals [2, 8]: 10
- ILS value [2, 8]: Cure
- Median survival time [2, 8]: Indefinite
- 60 day survivors/15 animals [2, 9]: 1
- ILS value (Median survival time of (Treated/Control − 1) × 100]) [2, 9]: 35%
- Median survival time [2, 9]: 27 days
- 60 day survivors/15 animals [2, 10]: 11
- ILS value (Median survival time of (Treated/Control − 1) × 100]) [2, 10]: Cure
- Median survival time [2, 10]: Indefinite
- Percent increase in body weight ([3]; MG 30 mg/kg/day ip, Day 15): 15.8 ± 1.3%
- Percent increase in body weight ([3]; MG 30 mg/kg/day ip, Day 25): 30.0 ± 2.9%
- Percent increase in body weight ([3]; MG 30 mg/kg/day ip, Day 35, 2 animals survived out of 6): 38.8 ± 3.0^b %
- Percent increase in body weight ([3]; MG 100 mg/kg body weight/day ip, Day 15): 8.0 ± 0.7%
- Percent increase in body weight ([3]; MG 100 mg/kg body weight/day ip, Day 20): 10.0 ± 1.2%
- Percent increase in body weight ([3]; MG 100 mg/kg body weight/day ip, Day 25): 11.0 ± 1.0%
- tumor development [4]: no tumor developed
- abnormalities among the litters [5]: Neither deformation of organs nor any other abnormalities
- effect on cell proliferation in the peritoneal cavity ([6]; EAC cell-inoculated mice, doses of Table 9): significant inhibitory effect
- % of cells present in respect of the control ([6]; MG 30 mg/kg/day, Day 10): 5%
- No. of EAC cells (in million) ([6]; MG 30 mg/kg/day, Day 10): 15 ± 2 million
- % of cells present in respect of the control ([6]; MG 30 mg/kg/day, Day 14): 13%
- No. of EAC cells (in million) ([6]; MG 30 mg/kg/day, Day 14): 230 ± 10 million
- Volume of packed cells ([6]; MG 30 mg/kg/day, Day 14): 0.26 ± 0.02 mL
- % of cells present in respect of the control ([6]; MG 30 mg/kg/day, Day 18): 23%
- No. of EAC cells (in million) ([6]; MG 30 mg/kg/day, Day 18): 820 ± 30 million
- Volume of packed cells ([6]; MG 30 mg/kg/day, Day 18): 0.96 ± 0.05 mL
- % of cells present in respect of the control ([6]; MG 100 mg/kg/day, Day 10): 0%
- % of cells present in respect of the control ([6]; MG 100 mg/kg/day, Day 14): 0%
- % of cells present in respect of the control ([6]; MG 100 mg/kg/day, Day 18): 0%
